Reference: publication PMC5533769, “A cell-based high-throughput screening assay system for inhibitor compounds of antigen presentation by HLA class II molecule” (Scientific Reports, 2017)
Entries after “also recorded” stand apart in the source; their conditions may differ. Like-named read-outs stand apart in the source and are kept apart here.

Tests used:
[1] = biological target: HLA-DR4 (DRA*01:01/DRB1*04:05) (Homo sapiens, UniProt P01903+P01911, A100R/A169T/D86S/F76Y/I96L/K127E/L162R/M171V/N62H/P40V/Q125Y/R42H/S133A/S149N/S66Y/V115G/V209L/W38E); test: FACS binding of biotinylated peptide to HLA-DR4 on HEK293T cells
[2] = system: HLA-DR (DRB1*01:01, DRB1*04:05, DRB1*09:01, DRB1*15:01); test: FACS binding of biotinylated peptide to panel of HLA-DR on HEK293T cells; design: species or system human; details: FACS, SA-PE; […]; biotinylated peptide 30 µM, >5 h
[3] = system: HEK293T cells (non-transfected); format: binding; details: FACS, SA-PE, biotinylated peptide 30 µM, >5 h
DR4 (DRB1*04:05) = DR4 (DRB1*04:05) (Homo sapiens, UniProt P01903+P01911, A100R/A169T/D86S/F76Y/I96L/K127E/L162R/M171V/N62H/P40V/Q125Y/R42H/S133A/S149N/S66Y/V115G/V209L/W38E); details: ref [24]; cited from earlier work
Method: To determine the genotype specificity and relative affinity of known epitope peptides, MBP83-99 and BiP336-355 peptide loading assays were performed on cells expressing DRA*01:01 plus various HLA-DRB1 (Supplemental Fig. 1A). […] However, the extent of peptide loading, which is evaluated by the mean fluorescence intensity (MFI), was the highes ...

DR15 (DRB1*15:01) [4] = biological target: T1, DR15 (DRB1*15:01) (Homo sapiens, UniProt P01903+P01911); test: 96-well plate peptide binding assay, DR15-expressing 3T3 cells, SA-β-gal/4MUG; details: parental vs. DR15-expressing 3T3 cells; MBP83-99 5 µM
T1 construct: The open reading frame for DRA or DRB1 were flanked with Xho 1 and EcoR1 sites; expressed in transfected cells
Method: (§1) Figure 3 Detection and screening system of antigen peptide binding to HLA on 3T3 cells in 96 well plate. (A) Scheme of the detection of HLA-bound peptides on cells in 96 well plates. HLA expressing cells are incubated with biotinylated antigen peptides, and bound peptides are probed with SA-β-gal, followed by enzyme reaction with chromogenic (ONPG) or fluorogenic substrate (4MUG). (B) Detection of HLA-bound peptides on 3T3 cells using fluorogenic substrate (4MUG) in 96 well plates. Two 96-well plates of DR15-expressing cells were incubated with MBP83-99 for 6 h, fixed with glutaraldehyde, and subjected to blocking with a blocking solution as detailed in the methods section. Thereafter, biotinylated peptides in one plate were probed with low concentration of SA-β-gal (3,000-fold dilution) and detected by using 4MUG. The other plate was analysed using a chromogenic substrate (ONPG) in Supplementary Fig. 3. (C) Time and concentration dependence of MBP83-99 binding to DR15-expressing 3T3 cells. The assay was conducted as in (B).
(§2) Unless otherwise described, the assay was conducted as follows. […] The reaction was stopped by addition of 100 µL of 0.5 M Na2CO3, and fluorescence intensity (Ex: 365 nm, Em: 450 nm) was measured by using a plate reader (Spectra Max plus, Molecular Devices, Sunnyvale, CA, USA). Wells devoid of cells and incubation with biotinylated peptide, but otherwise treated by using the same experimental procedure, were set as blank, and the mean fluorescence value for the wells was subtracted. The apparent Kd values for the binding of MBP83-99 and DR1 (DRB1*01:01) or DR15 (DRB1*15:01) was calculated by double reciprocal plot (1/[P-HLA] = Kd/[HLA]total [P] + 1/[HLA]total; where P represents peptide) or Scatchard plot ([P-HLA]/[P] = [HLA]total/Kd − [P-HLA]/Kd) after subtracting values for HLA-independent peptide binding (parental 3T3 cells) from the respective cells in a peptide concentration dependency experiment. […]

DR15 (DRB1*15:01) [5] = biological target: T2, DR15 (DRB1*15:01) (Homo sapiens, UniProt P01903+P01911, OTHER:DRA*01:01ANDEACHDRB1VECTORSWEREINTRODUCEDINTOTHECELLSAT1:1RATIO/OTHER:MBP83-99TODR15(DRB1*15:01)); test: as above; details: live DR15-expressing 3T3, 96-well, 4MUG, 8-h incubation, parental binding subtracted
T2 construct: The open reading frame for DRA or DRB1 were flanked with Xho 1 and EcoR1 sites; expressed in transfected cells
Method: as §1, §2

DR1 (DRB1*01:01) [6] = biological target: T3, DR1 (DRB1*01:01) (Homo sapiens, UniProt P01903+P01911, A100R/D57E/F55L/F60I/F76Y/I96L/L162R/M171V/P40L/Q125E/R42F/V115G/Y59C); test: 96-well plate peptide binding assay, DR1-expressing 3T3 cells, SA-β-gal/4MUG; details: for Kd: live DR1-expressing 3T3, 96-well, 4MUG, parental binding subtracted
T3 construct: The open reading frame for DRA or DRB1 were flanked with Xho 1 and EcoR1 sites; expressed in transfected cells

DR15 (DRB1*15:01) [7] = biological target: T1, DR15 (DRB1*15:01); test: 96-well competition assay: inhibition of MBP83-99 loading to DR15-expressing 3T3 cells; format: binding; details: DR15-expressing 3T3; 1 h pre-incubation, then MBP83-99 6 h; 4MUG
DR1 (DRB1*01:01) [8] = biological target: T3, DR1 (DRB1*01:01); test: 96-well competition assay: inhibition of MBP83-99 loading to DR1-expressing 3T3 cells; format: binding; details: DR1-expressing 3T3; 1 h pre-incubation, then MBP83-99 (5 µM) 6 h; 4MUG
[9] = biological target: T4, HLA-DR1 (DRA*01:01/DRB1*01:01) (Homo sapiens, UniProt P01903+P01911, A100R/D57E/F55L/F60I/F76Y/I96L/L162R/M171V/P40L/Q125E/R42F/V115G/Y59C); test: FACS binding of biotinylated peptide to HLA-DR1 on HEK293T cells; details: SA-PE, biotinylated peptide 30 µM, >5 h, 3 to 6 independent experiments
[10] = biological target: T4, HLA-DR1 (DRA*01:01/DRB1*01:01); test: FACS binding of biotinylated peptide to HLA-DR1 on stable 3T3 cells; details: SA-PE, stable 3T3, DRA*01:01 + DRB1*01:01, biotinylated peptide 30 µM overnight
[11] = system: HLA-DR (DRB1*01:01, DRB1*04:05, DRB1*09:01, DRB1*15:01); test: FACS binding of biotinylated peptide to panel of HLA-DR on stable 3T3 cells; design: species or system human; details: Supplemental Fig. 1 vs. Supplemental Fig. 2
parental 3T3 cells [12] = test: FACS binding of biotinylated peptide to parental 3T3 cells; design: species or system murine; details: SA-PE, parental 3T3, no HLA-DR, biotinylated peptide 30 µM overnight
parental 3T3 cells [13] = test: 96-well plate peptide binding assay, parental 3T3 cells, SA-β-gal/4MUG; design: species or system murine; details: SA-β-gal 3,000-fold
[14] = system: DRB1 molecules (almost all genotypes); details: ref [25]; cited from earlier work

Compound: RSTMKPVQKVLEDSDLKKSD [BiP336-355, immunoglobulin binding protein (BiP) 336–355, biotinylated self-antigen peptide of BiP]
- Peptide binding (MFI), HLA-DR4, extended incubation ([1]; HEK293T, DRB1*04:05, incubation extended to 20 h, data not shown): could not observe a further increase
- Peptide binding (MFI), HLA-DR4 ([1]; SA-PE, HEK293T transiently expressing DRA*01:01 + DRB1*04:05, biotinylated peptide 30 µM, >5 h): could bind to DR4-expressing HEK293T cells, although very slightly
- Peptide binding across HLA-DR genotypes [2]: not to other DR-expressing cells
- Peptide binding to control cells [3]: No loading of either peptide was observed
- Presentation by DR4 (DR4 (DRB1*04:05)): self-antigen presented by DR4 (DRB1*04:05)

Compound: CC[C@H](C)[C@H](NC(=O)[C@H](CC(N)=O)NC(=O)[C@H](CCCCN)NC(=O)[C@H](Cc1ccccc1)NC(=O)[C@H](Cc1ccccc1)NC(=O)[C@H](Cc1c[nH]cn1)NC(=O)[C@@H](NC(=O)[C@@H](NC(=O)[C@@H]1CCCN1C(=O)[C@H](CC(N)=O)NC(=O)[C@@H](N)CCC(=O)O)C(C)C)C(C)C)C(=O)N[C@H](C(=O)N[C@H](C(=O)N1CCC[C@H]1C(=O)N[C@@H](CCCNC(=N)N)C(=O)N[C@H](C(=O)N1CCC[C@H]1C(=O)O)[C@@H](C)O)[C@@H](C)O)C(C)C [MBP83-99, myelin basic protein (MBP) 83–99]
- HLA-independent binding share of apparent signal, DR15 cells (DR15 (DRB1*15:01) [4]): < 10%
- Kd (DR15 (DRB1*15:01) [5]; Scatchard plot, R² = 0.8781, read-out: apparent Kd, DR15, Scatchard plot): 3 µM
- Kd (DR15 (DRB1*15:01) [5]; double reciprocal plot, R² = 0.9378, read-out: apparent Kd, DR15, double reciprocal plot): 2 µM
- Kd (DR1 (DRB1*01:01) [6]; Scatchard plot, R² = 0.8216, read-out: apparent Kd, DR1, Scatchard plot): 14 µM
- Kd (DR1 (DRB1*01:01) [6]; double reciprocal plot, R² = 0.99, read-out: apparent Kd, DR1, double reciprocal plot): 10 µM
- HLA-independent binding share of apparent signal, DR1 cells (DR1 (DRB1*01:01) [6]; parental vs. DR1-expressing 3T3 cells, MBP83-99 5 µM): < 30%

Compound: LMAKARQKVLMPSTMLP [scCLIP, scramble peptide (scCLIP), scramble version of the CLIP peptide]
- Inhibitory effect on MBP83-99 loading, DR15 (DR15 (DRB1*15:01) [7]): no inhibitory effect
- Inhibitory effect on MBP83-99 loading, DR1 (DR1 (DRB1*01:01) [8]): no inhibitory effect

Compound: ACPKYVKQNTLKLATG [HA305-320, influenza hemagglutinin (HA) 305–320, biotinylated influenza hemagglutinin peptide]
- Peptide binding (MFI), HLA-DR1 [9]: the highest level
- Peptide binding across HLA-DR genotypes [2]: did increase in any genotypes of DRB1-expressing cells
- Peptide binding, DR1 on 3T3 [10]: increased in cells expressing HLA, especially DR1; also recorded: could be loaded onto HLA to a sufficient level
- Binding intensity in 3T3 compared with HEK293T cells [11]: far less than those in HEK293T cells
- Peptide binding to parental 3T3 cells (HLA-independent) (parental 3T3 cells [12]): significant degree of apparent binding; also recorded: bound to the cell surface independently of HLA, especially avidly in 3T3 cells
- Peptide binding to parental 3T3 cells, 96-well, and after maximum (DR1 (DRB1*01:01) [6]): gradually decreased
- HLA-independent binding share of entire signal, DR1 cells (DR1 (DRB1*01:01) [6]; […], HA305-320, obtained at 8 h): exceeded 80%
- Time to maximum binding, DR1 (DR1 (DRB1*01:01) [6]; […], then gradually decreased): 8 h
- Time to almost plateau loading (Discussion) (DR1 (DRB1*01:01) [6]; cell-based 96-well assay, […]): ~8 h
- Peptide loading, parental 3T3, 96-well (parental 3T3 cells [13]): a significant amount of HA305-320 binding was observed in the parental cells
- Binding to DRB1 genotypes [14]: bind to almost all genotypes of DRB1 molecules; also recorded: binds to every genotype of HLA-DRs
